Source: patent US8410302B2, “Methoxyimino compounds and fungicide composition comprising same” (Kyung Nong Corporation, priority 2007, dated 2013)
Read-outs that look alike come from different tables or passages of the source.

Key:
[1] = system: Botrytis cinerae; assay: Fungicidal activity against cucumber gray mold rot (CGM) disease, control value; type: in vivo
[2] = system: Rhizoctonia solani AG-1; assay: Fungicidal activity against rice sheath blight (RSB) disease, control value; details: for pest or weed control at 2 ppm / pest or weed control at 10 ppm / pest or weed control at 50 ppm / pest or weed control at 100 ppm: Rhizoctonia solani, AG1, in Oryza sativa, read-out: RSB control value (C.V.)
[3] = system: Phytophthora infestans; assay: whole plant or invertebrate; type: in vivo; details: for pest or weed control at 2 ppm / pest or weed control at 10 ppm / pest or weed control at 50 ppm / pest or weed control at 100 ppm: Phytophthora infestans, in Solanum lycopersicum, read-out: TLB control value (C.V.)
[4] = system: Pyricularia oryzae Carvara KA301; assay: whole plant or invertebrate; type: in vivo; details: for pest or weed control at 2 ppm / pest or weed control at 10 ppm / pest or weed control at 50 ppm / pest or weed control at 100 ppm: Pyricularia oryzae, read-out: RCB control value (C.V.); for RCB control value (C.V.): rice blast
[5] = system: Puccinia recondita; assay: Fungicidal activity against wheat leaf rust (WLR) disease, control value; type: in vivo; details: for pest or weed control at 2 ppm / pest or weed control at 10 ppm / pest or weed control at 50 ppm / pest or weed control at 100 ppm: read-out: WLR control value (C.V.)
[6] = system: Erysiphae graminis; assay: Fungicidal activity against barley powdery mildew (BPM) disease, control value; type: in vivo; details: for pest or weed control at 2 ppm / pest or weed control at 10 ppm / pest or weed control at 50 ppm / pest or weed control at 100 ppm: 168 h, read-out: BPM control value (C.V.)
[7] = Botrytis, 100 ppm, read-out: CGM control value (C.V.)
[8] = Hordeum vulgare, barley powdery mildew

Row | Structure (SMILES) | pest or weed control at 100 ppm [1, 7] | pest or weed control at 2 ppm [2] | pest or weed control at 10 ppm [2] | pest or weed control at 50 ppm [2] | pest or weed control at 100 ppm [2] | pest or weed control at 2 ppm [3] | pest or weed control at 10 ppm [3] | pest or weed control at 50 ppm [3] | pest or weed control at 100 ppm [3] | pest or weed control at 2 ppm [4] | pest or weed control at 10 ppm [4] | pest or weed control at 50 ppm [4] | pest or weed control at 100 ppm [4] | pest or weed control at 2 ppm ([5]; Puccinia recondita, 2 ppm) | pest or weed control at 10 ppm ([5]; Puccinia recondita, 10 ppm) | pest or weed control at 50 ppm ([5]; Puccinia recondita, 50 ppm) | pest or weed control at 100 ppm ([5]; Puccinia recondita, 100 ppm) | pest or weed control at 2 ppm [6] | pest or weed control at 10 ppm [6] | pest or weed control at 50 ppm ([6]; 50 ppm) | further results
1 | CNC(=O)/C(=N/OC)c1ccccc1COc1cccc(C=C(Br)Br)c1Cl [Example 68, (E)-2-(2-((3-(2,2-dibromovinyl)-2-chlorophenoxy)methyl)phenyl)-2-methoxyimino-N-methylacetamide] | 70% | 100% | 100% | 100% | 100% | 100% | 100% | 100% | 100% | 100% | 100% | 100% | 100% | 100% | 100% | 100% | 100% | 100% | 100% | 100% | pest or weed control at 50 ppm ([1]; Botrytis, 50 ppm, read-out: CGM control value (C.V.)): 20%; pest or weed control at 100 ppm ([6]; 100 ppm): 100%
2 | CNC(=O)/C(=N/OC)c1ccccc1CON=C(C)c1cccc(C=C(F)F)c1 [Example 28, (E)-2-[[[[[2-[3-(2,2-difluorovinyl)phenyl](1-methyl)methylidene]amino]oxy]methyl]phenyl]-2-methoxyimino-N-methylacetamide] | – | – | – | – | – | – | – | – | – | – | – | – | – | – | – | – | – | – | – | – | CGM control value (C.V.) ([1]; 100 ppm, cucumber gray mold rot): 50%; RSB control value (C.V.) ([2]; 100 ppm, rice sheath blight): 35%; TLB control value (C.V.) ([3]; 100 ppm, tomato late blight): 60%; RCB control value (C.V.) ([4]; 50 ppm): 70%; RCB control value (C.V.) ([4]; 100 ppm): 95%; WLR control value (C.V.) ([5]; 2 ppm, wheat leaf rust): 40%; WLR control value (C.V.) ([5]; 10 ppm, wheat leaf rust): 90%; WLR control value (C.V.) ([5]; 50 ppm, wheat leaf rust): 100%; WLR control value (C.V.) ([5]; 100 ppm, wheat leaf rust): 100%; BPM control value (C.V.) ([6]; 50 ppm, barley powdery mildew): 60%; BPM control value (C.V.) ([6]; 100 ppm, barley powdery mildew): 90%
3 | CNC(=O)/C(=N/OC)c1ccccc1COc1ccc(C=C(Br)Br)cc1 [Example 8, (E)-2-(2-((4-(2,2-dibromovinyl)phenoxy)methyl)phenyl)-2-methoxyimino-N-methylacetamide] | – | – | – | – | 32% | 98% | 100% | 100% | 100% | 90% | 97% | 100% | 100% | – | – | – | – | – | – | – | pest or weed control at 100 ppm ([1]; Botrytis, 100 ppm, cucumber gray mold rot, read-out: CGM control value (C.V.)): 7%; pest or weed control at 2 ppm ([5]; 2 ppm, wheat leaf rust): 90%; pest or weed control at 10 ppm ([5]; 10 ppm, wheat leaf rust): 90%; pest or weed control at 50 ppm ([5]; 50 ppm, wheat leaf rust): 98%; pest or weed control at 100 ppm ([5]; 100 ppm, wheat leaf rust): 100%; pest or weed control at 2 ppm [6, 8]: 99%; pest or weed control at 10 ppm [6, 8]: 100%; pest or weed control at 50 ppm ([6]; Hordeum vulgare, 50 ppm, barley powdery mildew): 100%; pest or weed control at 100 ppm ([6]; Hordeum vulgare, 100 ppm, barley powdery mildew): 100%
4 | CNC(=O)/C(=N/OC)c1ccccc1COc1ccc(C=C(Cl)Cl)c(Cl)c1 [Example 58, (E)-2-(2-((3-chloro-4-(2,2-dichlorovinyl)phenoxy)methyl)phenyl)-2-methoxyimino-N-methylacetamide] | 35% | 90% | 100% | 100% | 100% | 99% | 100% | 100% | 100% | 100% | 100% | 100% | 100% | 100% | 100% | 100% | 100% | 100% | 100% | 100% | pest or weed control at 100 ppm ([6]; 100 ppm): 100%
